According to patent US20090209554A1, “Thiazoliums as transketolase inhibitors” (ARRAY BIOPHARMA INC., priority 2004, published 2009):

Key:
[1] = target: T1, transketolase (TK) in colon carcinoma HCT116 cells (Homo sapiens, UniProt P29401); experiment: Cellular transketolase inhibition assay in HCT116; format: cell-based; conditions: colon carcinoma HCT116, thiamine-free DMEM, 48 h after compound treatment, TK activity in lysate
T1 construct: endogenous in cells; host or cells: HCT116
T1 sequence (P29401 1-623): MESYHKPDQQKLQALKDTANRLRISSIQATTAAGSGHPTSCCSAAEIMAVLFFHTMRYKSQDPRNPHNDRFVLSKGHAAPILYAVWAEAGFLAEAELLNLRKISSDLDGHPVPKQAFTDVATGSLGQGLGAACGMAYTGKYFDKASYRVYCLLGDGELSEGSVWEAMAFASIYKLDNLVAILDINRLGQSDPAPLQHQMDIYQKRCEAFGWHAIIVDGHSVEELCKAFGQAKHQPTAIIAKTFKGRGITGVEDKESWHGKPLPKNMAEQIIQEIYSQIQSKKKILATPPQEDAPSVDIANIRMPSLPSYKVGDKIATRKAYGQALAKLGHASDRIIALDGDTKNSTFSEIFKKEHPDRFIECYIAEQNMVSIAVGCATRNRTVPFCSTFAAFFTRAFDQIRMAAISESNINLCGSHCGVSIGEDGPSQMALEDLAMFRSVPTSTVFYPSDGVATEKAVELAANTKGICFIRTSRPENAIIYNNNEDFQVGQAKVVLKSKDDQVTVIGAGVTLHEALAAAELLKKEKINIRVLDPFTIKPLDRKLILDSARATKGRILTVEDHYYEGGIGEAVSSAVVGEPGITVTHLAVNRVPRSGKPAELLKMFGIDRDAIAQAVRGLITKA
Protocol: Determining Inhibition Constants of TPP Mimetics in Cellular Assay
Log-phase cells were trypsinized, washed and resuspended in thiamine-free DMEM. Optimization of the initial cell counts was carried out for each cell line prior to IC50 measurements. […] Using this initial cell count, IC50 could be monitored for six days.
Media containing 8,000 cells (95 μl) were used to seed individual wells in a 96-well clear-bottom cell cultured-treated sterile plate. Inhibitor compounds were dissolved in 100% DMSO as 10 mM solutions. Serial dilutions were then made in 100% DMSO to make up a 100× stock, then diluted to 20× in double-deionized H2O (ddH2O). Twenty-four hours after seeding, 5 μl of 20× inhibitor compound stock solution was added to the cells so that the final concentration of DMSO was 1%. Media were changed after 24 hours. Forty-eight hours after inhibitor compound treatment, the plates were inverted to remove media and blotted on a paper towel. The plates were then either subjected to enzymatic reactions immediately or were frozen at −20° C. for future assays.
Lysis buffer (20 mM HEPES, pH 7.5, 1 mM EDTA, 0.2 g/l Triton X-100® and 0.2 g/L sodium deoxycholate, supplemented with 1 mM DTT and 1 mM PMSF just before use, 80 μl) were added to each well of the assay plate and allow cell lysis at RT with shaking. Then 15 ul of 5× assay buffer containing final concentrations of 50 mM HEPES, 40 mM KCl, 2.5 mM MgCl2, 5 mM NaArsenate, 1 mM NAD, 2 unit/ml glyceraldehyde-3-phosphate dehydrogenase (GAPDH) was added to the 80 ul of lysate. Reaction kinetics were monitored on a fluorescent plate reader to allow any possible background activity via GAPDH to burn out. Then 5 ul of substrate mix containing final concentrations of 0.5 mM ribose-5-phosphate and 0.5 mM xylulose-5-phosphate was added to initiate the reaction. Monitor reaction kinetics were monitored using a fluorescent plate reader and the slope of the initial linear range was recorded as the velocity of the reaction (FU/min). Enzymatic inhibition was expressed as percent of control wells that were not treated with compounds. The values (y) were plotted as function of the log concentration (x) and fitted to a sigmoidal dose-response curve with variable slopes that bears the equation: y-bottom+(top-bottom)/(1+10̂((log EC50−x)*hillslope)).

[2] = target: T2, transketolase (purified TK apo enzyme) (Homo sapiens, UniProt P29401); experiment: TPK-apoTK coupled cell-free TK inhibition assay (pyrophosphorylated compounds competing with TPP); format: biochemical; conditions: compound enzymatically pyrophosphorylated by TPK1; 100 nM TK, 20 μM TPP
T2 sequence (P29401 1-623): T1 sequence (P29401 1-623)
Protocol: Determining Inhibition Constants of TPP Mimetics in Cell Free Assay (Purified TK apo Enzyme) Compounds scored as TPK1 substrates were then enzymatically converted to pyrophosphate and assessed for an ability to compete with TPP in inhibiting TK activity. The TK inhibition assay was carried out as follows. The pyrophosphorylation reaction mix consisted of 50 mM HEPES, 1 mM DTT, 1 mM MgCl2, pH 8.0, 1 to 10 mM thiamine analog, and 40 mM Mg-ATP. TKP1 (46.2 μg) was added in 10 μL aliquots every hour for 5 hours. The reaction mix was then incubated overnight at 4° C. TPK1 was removed by ultra-filtration using a 10,000 MWCO filter. The extent of reaction was monitored as described above. […] The above reaction mix (40 μL) was placed in a well of a Costar 3695 half-area plate and pre-incubated at room temperature for 30 min. It was then incubated for 2 minutes at 30° C. The reaction was initiated with the addition of 10 μL pentose phosphates (xylulose 5-phosphate and ribose 5-phosphate) with a final concentration of 0.5 mM. The reaction was monitored at 340 nm using a Molecular Devices Spectramax M2 plate reader. “TPK-TK” in the second column in Table 1 designates the thiamine pyrophosphate kinase/transketolase coupled reaction.

SMILES	IC50 [1] [µM]	IC50 [2] [µM]
Cc1c(CCO)sc[n+]1Cc1ccccc1	> 100	0.336
Cc1c(CCO)sc[n+]1Cc1ccccc1[N+](=O)[O-]	> 100	0.109
Cc1c(CCO)sc[n+]1Cc1ccccc1N	> 100	0.198
Cc1c(CCO)sc[n+]1Cc1cc([N+](=O)[O-])ccc1O	> 100	
Cc1c(CCO)sc[n+]1Cc1ccc(C(=O)O)cc1	> 100	
CC(=O)Nc1ccc(C[n+]2csc(CCO)c2C)cc1	24.3	0.00883
Cc1c(CCO)sc[n+]1Cc1ccccn1	> 100	
Cc1c(CCO)sc[n+]1Cc1cccc(N2C(=O)c3ccccc3C2=O)n1	> 100	
Cc1c(CCO)sc[n+]1Cc1cccnc1	0.731	0.0707
Cc1c(CCO)sc[n+]1Cc1cccnc1N	0.111	0.0365
Cc1c(CCO)sc[n+]1Cc1cccnc1C#N	> 33	0.123
Cc1c(CCO)sc[n+]1Cc1ccc(C(F)(F)F)nc1N	0.119	0.104
Cc1c(CCO)sc[n+]1Cc1ccc(Cl)nc1N	0.156	
Cc1cnc(N)c(C[n+]2csc(CCO)c2C)c1	0.862	0.109
Cc1c(CCO)sc[n+]1Cc1ccc(C(F)(F)F)nc1	0.471	0.387
Cc1c(CCO)sc[n+]1Cc1ccc(N)nc1	1.61	0.00695
Cc1c(CCO)sc[n+]1Cc1ccc(N2C(=O)c3ccccc3C2=O)nc1	3.15	0.143
Cc1cncc(C[n+]2csc(CCO)c2C)c1	37.8	
Cc1c(CCO)sc[n+]1Cc1cncc(C#N)c1	119	0.294
COC(=O)c1cncc(C[n+]2csc(CCO)c2C)c1	> 100	0.382

SMILES	IC50 [1] [µM]	IC50 [2] [µM]
Cc1c(CCO)sc[n+]1Cc1cnccc1N	23.9	0.0642
Cc1ccc(C[n+]2csc(CCO)c2)c(N)n1	9.54	0.0291
Cc1ccc(C[n+]2csc(CCO)c2C)c(N)n1	0.03	0.022
CC(=O)OCCc1sc[n+](Cc2ccc(C)nc2N)c1C	0.006	
CCc1ccc(C[n+]2csc(CCO)c2C)c(N)n1	0.074	
Cc1c(CCO)sc[n+]1Cc1ccc(C#N)nc1N	0.354	0.0571
Cc1cc(C)c(C[n+]2csc(CCO)c2)c(N)n1	12.5	
Cc1cc(C)c(C[n+]2csc(CCO)c2C)c(N)n1	0.131	0.0338
CC(=O)Nc1ccc(C[n+]2csc(CCO)c2C)c(N)n1	0.803	0.0225
COc1ccc(C[n+]2csc(CCO)c2C)c(NC(C)=O)n1	170	
Cc1ccc(C[n+]2cc(CCO)sc2C)c(N)n1	0.489	0.0356
Cc1cc(C)c(C[n+]2cc(CCO)sc2C)c(N)n1	26.3	
CCc1sc(CCO)c(C)[n+]1Cc1ccc(C)nc1N	0.026	0.0755
Cc1ccc(C[n+]2c(C(C)O)sc(CCO)c2C)c(N)n1 (stereo not shown)	0.034	0.0914
Cc1ccc(C[n+]2c(-c3ccc4c(c3)OCO4)sc(CCO)c2C)c(N)n1	25.5	
Cc1ccc(C[n+]2c(Cc3cccnc3)sc(CCO)c2C)c(N)n1	0.838	
CCc1c(CCO)sc[n+]1Cc1ccc(C)nc1N	1.72	
Cc1ccc(C[n+]2csc(CCO)c2CO)c(N)n1	0.236	0.0251
Cc1ccc(C[n+]2c(C)sc(CO)c2C)c(N)n1	0.237	
Cc1ccc(C[n+]2csc(C(O)CO)c2C)c(N)n1 (stereo not shown)	0.269	0.0534

SMILES	IC50 [1] [µM]	IC50 [2] [µM]
Cc1ccc(C[n+]2csc([C@@H](O)CO)c2C)c(N)n1	2.2	0.0268
Cc1ccc(C[n+]2csc([C@H](O)CO)c2C)c(N)n1	0.062	0.0281
Cc1cc(C)c(C[n+]2csc(C(O)CO)c2C)c(N)n1 (stereo not shown)	3.16	0.09
Cc1ccc(C[n+]2csc(CCCO)c2C)c(N)n1	1.03	
Cc1ccc(C[n+]2csc(CCC#N)c2C)c(N)n1	2.17	
COC(=O)CCc1sc[n+](Cc2ccc(C)nc2N)c1C	2.33	
Cc1c(CCO)sc[n+]1Cc1ccncc1	> 100	0.421
Cc1c(CCO)sc[n+]1Cc1cncnc1	> 100	1.43
Cc1ncc(C[n+]2c(C)sc(CCO)c2C)c(N)n1	0.214	
Cc1ncc(C[n+]2c(C(C)O)sc(CCO)c2C)c(N)n1 (stereo not shown)	> 100	0.851
COc1ncc(CO)c(N)n1	> 100	
Cc1ncc(C[n+]2csc(CCO)c2C)c(=O)[nH]1	0.076	
Cc1c(CCO)sc[n+]1Cc1nccnc1N	16.5	0.0612
Cc1cnc(C[n+]2csc(CCO)c2C)c(N)n1	0.408	0.0152
Cc1cc(C[n+]2csc(CCO)c2C)no1	5.15	
Cc1c(CCO)sc[n+]1Cc1ccsc1C#N	> 33	0.138
Cc1c(CCO)sc[n+]1Cc1ccsc1C(N)=O	> 33	
Cc1ccc(C[n+]2c(C)sc(CCO)c2C)c(N)n1 [drawing 48]	0.031	
Cc1ccc(C[n+]2c(C)sc(CCO)c2C)c(N)n1 [drawing 55]	0.049	0.0246
